Data as given in ChEMBL document CHEMBL5126560, “2,3-Dihydrobenzo-dioxine piperidine derivatives as potent and selective α2c antagonists” (Bioorg Med Chem Lett, 2022).
Converted amounts (≈) assume the structure as drawn.

Assays:
[1] = Solubility of compound in pH 7.4 buffer at 1 uM; format: physicochemical
[2] = Clearance in human hepatocytes assessed per million cells at 1 uM; format: ADME, cell-based, Hepatocyte; conditions: read-out: CLH
[3] = Permeability across apical to basolateral side in human Caco-2 cells; format: ADME, cell-based; conditions: read-out: permeability
in vitro = conditions: human, Caco-2
Description: Efflux ratio of permeability across basolateral to apical side over apical to basolateral side in human Caco-2 cells

Homo sapiens = species: Homo sapiens; assay: Selectivity ratio of Kb for antagonist activity at human alpha2A receptor stably expressed in CHO cells to Kb for antagonist activity at human alpha2C receptor stably expressed in CHO cells; format: cell-based
[4] = Clearance in rat hepatocytes assessed per million cells at 1 uM; format: ADME, cell-based, Hepatocyte; conditions: read-out: CLH
[5] = Permeability across basolateral to apical side in human Caco-2 cells; format: ADME, cell-based; conditions: read-out: permeability
[6] = Lipophilicity, log D of compound at pH 7.4; format: physicochemical; conditions: buffer
[7] = AUC (0 to 6 hrs) in rat plasma at 1 mg/kg, po; format: ADME, organism-based; design: time < 6 hr, dose 1 mg/kg, route po
[8] = Tmax in rat plasma at 1 mg/kg, po; format: ADME, organism-based
[9] = Unbound brain-to-plasma concentration ratio in rat at 1 mg/kg, po; format: ADME, organism-based; conditions: read-out: K(p,uu,brain)
[10] = AUC (0 to 6 hrs) in rat brain at 1 mg/kg, po; format: ADME, organism-based; design: time < 6 hr, dose 1 mg/kg, route po; conditions: in vivo
[11] = Cmax in rat plasma at 1 mg/kg, po; format: ADME, organism-based; design: dose 1 mg/kg, route po
[12] = Unbound Cmax in rat plasma at 1 mg/kg, po by rapid equilibrium dialysis method; format: ADME, organism-based; conditions: in vivo
[13] = Unbound fraction in rat plasma at 1 mg/kg, po by rapid equilibrium dialysis method; format: ADME, organism-based
[14] = Unbound Cmax in rat brain at 1 mg/kg, po by rapid equilibrium dialysis method; format: ADME, organism-based; conditions: in vivo
[15] = Tmax in rat brain at 1 mg/kg, po; format: ADME, organism-based
[16] = Cmax in rat brain at 1 mg/kg, po; format: ADME, organism-based; design: dose 1 mg/kg, route po
[17] = Unbound fraction in rat brain at 1 mg/kg, po by rapid equilibrium dialysis method; format: ADME, organism-based

With `COCc1cccnc1N1CCN(C[C@H]2COc3ccccc3O2)CC1` [ORM-13070] the solubility at 1 µM [1] was 176 µM (≈ 62.6 µg/mL), the hepatocyte CLint at 1 µM [2] was 38.7 µL/min/1e6 cells and the Papp A→B [3] was 44.9 ×10⁻⁶ cm/s. For the same compound, the efflux ratio (in vitro) was 1, the Selectivity ratio (Homo sapiens) was 4330 and the hepatocyte CLint at 1 µM [4] was 135 µL/min/1e6 cells. The Papp B→A [5] was 45 ×10⁻⁶ cm/s and the logD [6] was 3.3.

For `CCN1C(=O)C(=O)N([C@H]2CCCN(C[C@H]3COc4ccccc4O3)C2)C1=O`, the AUC(0-t) at 6 h [7] was 261 ng·h/mL, the Tmax [8] was 30 min and the Kp uu [9] was 0.4. For the same compound, the AUC [10] was 91 ng·h/g, the Cmax [11] was 209 ng/mL and the fCmax [12] was 44 nM. For the same compound, the fraction unbound [13] was 0.078, the fCmax [14] was 18 nM and the Tmax [15] was 30 min. The Cmax [16] was 72 ng/g and the fraction unbound [17] was 0.096.

`Oc1cccc([C@H]2CCCN(C[C@H]3COc4ccccc4O3)C2)c1` gave an AUC(0-t) at 6 h [7] of 9 ng·h/mL, a solubility at 1 µM [1] of 18 µM (≈ 5.86 µg/mL) and a hepatocyte CLint at 1 µM [2] of 294 µL/min/1e6 cells. For the same compound, the Papp A→B [3] was 16.1 ×10⁻⁶ cm/s, the Tmax [8] was 30 min and the AUC [10] was 14 ng·h/g. It also gave a Cmax [11] of 2 ng/mL, a fCmax [12] of under 0.06 nM and a fraction unbound [13] of under 0.01. The efflux ratio (in vitro) was 1.5, the Selectivity ratio (Homo sapiens) was 1950 and the fCmax [14] was under 0.09 nM. It also gave a Tmax [15] of 360 min, a hepatocyte CLint at 1 µM [4] of 682 µL/min/1e6 cells and a Cmax [16] of 3 ng/g. The Papp B→A [5] was 24.2 ×10⁻⁶ cm/s, the logD ([6]; read-out: logD) was 3.4 and the fraction unbound [17] was under 0.01.
